Patent US9688637B2, “3-amidobenzamides and uses thereof for increasing cellular levels of A3G and other A3 family members” (Northwestern University, priority 2014, dated 2017)

Key:
A3G-Luc = A3G-Luc luciferase screen in 293T cells stably expressing A3G-Luc; format: cell-based, human; conditions: for A3G-Luc Activity (% of Relative Light Units compared to DMSO treated control): 10 μM, 48 hrs, DMSO = 100%
BHPrE = assay: Cancer cell death, cell numbers vs DMSO; format: cell-based; conditions: 6 μM, 8 days; prostate cell line, wild-type functional p53
From the text: (§1) To test the effect of the compounds described below on cancer cell death, cell lines derived from different types of cancer were studied in vitro. MCF10A, MCF7, T47D, MDA-MB-157 and MDA-MB-231 are breast cancer cell lines. NHPrE, BHPrE, RWPE1, DU145, and PC3 cells are prostate cell lines. HeLa is cervical cancer cell line. HEK293 is human embryonic kidney cell line lacking A3B expression. There are differences among these cancer cell lines in p53 expression (44-46). MCF10A, MCF7, NHPrE, BHPrE and HEK293 cells have wild-type and functional p53. RWPE1 and HeLa cells have wild-type p53 but the p53 protein in these cell line is not functional because of effects of human papilloma virus E6 protein. T47D, MDA-MB-231, and DU145 cell lines have mutant p53, while MDA-MB-157 and PC3 cells have no p53 expression. 25,000 cells per well were plated in 6 well plates. In the case of HEK293 cells. 500,000 cells per well in 6-well plates were used instead. After 24 hrs, culture medium was replaced with new medium containing either DMSO as control or one of the compounds described below (6 μM per well concentration). After 8 days incubation with compounds, cell numbers were counted from each well and plotted with number of cells from DMSO treated sample as 100%. We performed the experiments at least twice. HEK293, MCF7 and T47D cells they were maintained for 16 days with compounds instead of 8 days.

DU145 = assay: Cancer cell death, cell numbers vs DMSO; format: cell-based; conditions: 6 μM, 8 days; prostate cell line, mutant p53
From the text: as §1

HeLa = assay: Cancer cell death, cell numbers vs DMSO; format: cell-based; conditions: 6 μM, 8 days; cervical cancer cell line, p53 not functional
From the text: as §1

MCF10A = assay: Cancer cell death, cell numbers vs DMSO; format: cell-based; conditions: 6 μM, 8 days; breast cell line, wild-type functional p53
From the text: as §1

MCF7 = assay: Cancer cell death, cell numbers vs DMSO; format: cell-based; conditions: 6 μM, 16 days; breast cancer cell line, wild-type functional p53
From the text: as §1

MDA-MB-157 = assay: Cancer cell death, cell numbers vs DMSO; format: cell-based; conditions: 6 μM, 8 days; breast cancer cell line, no p53 expression
From the text: as §1

MDA-MB-231 = assay: Cancer cell death, cell numbers vs DMSO; format: cell-based; conditions: 6 μM, 8 days; breast cancer cell line, mutant p53
From the text: as §1

NHPrE = assay: Cancer cell death, cell numbers vs DMSO; format: cell-based; conditions: 6 μM, 8 days; prostate cell line, wild-type functional p53
From the text: as §1

PC3 = assay: Cancer cell death, cell numbers vs DMSO; format: cell-based; conditions: 6 μM, 8 days; prostate cell line, no p53 expression
From the text: as §1

RWPE1 = assay: Cancer cell death, cell numbers vs DMSO; format: cell-based; conditions: 6 μM, 8 days; prostate cell line, p53 not functional
From the text: as §1

T47D = assay: Cancer cell death, cell numbers vs DMSO; format: cell-based; conditions: 6 μM, 16 days; breast cancer cell line, mutant p53
From the text: as §1

BC-1 = BC-1 primary effusion lymphoma cell proliferation; format: cell-based; conditions: primary effusion lymphoma (PEL) cell line (FIG. 10)
From the text: FIG. 10. A primary effusion lymphoma (PEL) cell line (BC-1, infected with both Kaposi's sarcoma herpesvirus and Epstein Barr Virus) is also killed by the listed compounds.

COc1ccc(C(=O)Nc2ccc(Cl)c(Cl)c2)cc1NC(=O)CC1CC1 [NU-466]
A3G-Luc Activity (% of Relative Light Units compared to DMSO treated control) (A3G-Luc): 318%
cell killing (cell numbers vs DMSO) (BHPrE): not killed
cell killing (cell numbers vs DMSO) (DU145): kill
cell killing (cell numbers vs DMSO) (HeLa): kill
cell killing (cell numbers vs DMSO) (MCF10A): not killed
cell killing (cell numbers vs DMSO) (MCF7): not killed
cell killing (cell numbers vs DMSO) (MDA-MB-157): kill
cell killing (cell numbers vs DMSO) (MDA-MB-231): kill
cell killing (cell numbers vs DMSO) (NHPrE): not killed
cell killing (cell numbers vs DMSO) (PC3): kill
cell killing (cell numbers vs DMSO) (RWPE1): kill
cell killing (cell numbers vs DMSO) (T47D): kill
BC-1 cell proliferation (BC-1): inhibit BC-1 cell proliferation

COc1ccc(C(=O)Nc2ccc(Cl)c(Cl)c2)cc1NC(=O)C1CCC1 [NU-302]
A3G-Luc Activity (% of Relative Light Units compared to DMSO treated control) (A3G-Luc): 196%
cell killing (cell numbers vs DMSO) (BHPrE): not killed
cell killing (cell numbers vs DMSO) (DU145): kill
cell killing (cell numbers vs DMSO) (HeLa): kill
cell killing (cell numbers vs DMSO) (MCF10A): not killed
cell killing (cell numbers vs DMSO) (MCF7): not killed
cell killing (cell numbers vs DMSO) (MDA-MB-157): kill
cell killing (cell numbers vs DMSO) (MDA-MB-231): kill
cell killing (cell numbers vs DMSO) (NHPrE): not killed
cell killing (cell numbers vs DMSO) (PC3): kill
cell killing (cell numbers vs DMSO) (RWPE1): kill
cell killing (cell numbers vs DMSO) (T47D): kill
BC-1 cell proliferation (BC-1): inhibit BC-1 cell proliferation

COc1ccc(C(=O)Nc2ccc(Cl)c(Cl)c2)cc1NC(=O)C(C)C [NU-52]
A3G-Luc Activity (% of Relative Light Units compared to DMSO treated control) (A3G-Luc): 178%
increase of A3G (A3G-Luc; 293T stably expressing A3G-Luc, without Vif (FIG. 6)): about 3 fold
cell killing (cell numbers vs DMSO) (BHPrE): not killed
cell killing (cell numbers vs DMSO) (DU145): kill
cell killing (cell numbers vs DMSO) (HeLa): kill
cell killing (cell numbers vs DMSO) (MCF10A): not killed
cell killing (cell numbers vs DMSO) (MCF7): not killed
cell killing (cell numbers vs DMSO) (MDA-MB-157): kill
cell killing (cell numbers vs DMSO) (MDA-MB-231): kill
cell killing (cell numbers vs DMSO) (NHPrE): not killed
cell killing (cell numbers vs DMSO) (PC3): kill
cell killing (cell numbers vs DMSO) (RWPE1): kill
cell killing (cell numbers vs DMSO) (T47D): kill
BC-1 cell proliferation (BC-1): inhibit BC-1 cell proliferation
